Measurements published in ChEMBL document CHEMBL3232804, “Synthesis and evaluation of new diaryl ether and quinoline hybrids as potential antiplasmodial and antimicrobial agents” (Bioorg Med Chem Lett, 2014).
pIC50: −log10 of the molar value. Converted amounts (≈) assume the structure as drawn.

Columns and labels:
Aspergillus fumigatus = assay: Antifungal activity against Aspergillus fumigatus clinical isolate after 72 to 96 hrs by standard broth microdilution method; format: functional
Sporothrix schenckii = assay: Antifungal activity against Sporothrix schenckii clinical isolate after 72 to 96 hrs by standard broth microdilution method; format: functional
Escherichia coli = assay: Antimicrobial activity against Escherichia coli ATCC 9637 after 24 hrs by standard broth microdilution method; format: functional; settings: ATCC 9637, 24 h
Plasmodium falciparum [1] = assay: Antiplasmodial activity against chloroquine-sensitive Plasmodium falciparum 3D7 infected after 72 hrs by Malaria SYBR Green I-staining based fluorescence assay; format: functional, organism-based; settings: 3D7, 72 h
Pseudomonas aeruginosa = assay: Antimicrobial activity against Pseudomonas aeruginosa ATCC BAA-427 after 24 hrs by standard broth microdilution method; format: functional; settings: ATCC BAA-427, 24 h
[2] = system: Trichophyton mentagrophytes; assay: Antifungal activity against Trichophyton mentagrophytes clinical isolate after 72 to 96 hrs by standard broth microdilution method; format: functional
Candida parapsilosis = assay: Antifungal activity against Candida parapsilosis ATCC […] after 72 to 96 hrs by standard broth microdilution method; format: functional; settings: Lodderomyces parapsilosis
Klebsiella pneumoniae = assay: Antimicrobial activity against Klebsiella pneumoniae ATCC 27736 after 24 hrs by standard broth microdilution method; format: functional; settings: ATCC 27736, 24 h
Candida albicans = assay: Antifungal activity against Candida albicans clinical isolate after 24 to 48 hrs by standard broth microdilution method; format: functional
Plasmodium falciparum [3] = assay: Antiplasmodial activity against chloroquine-resistant Plasmodium falciparum K1 infected after 72 hrs by Malaria SYBR Green I-staining based fluorescence assay; format: functional, organism-based; settings: K1, 72 h
Cryptococcus neoformans = assay: Antifungal activity against Cryptococcus neoformans clinical isolate after 24 to 48 hrs by standard broth microdilution method; format: functional
[4] = Selectivity index, ratio of IC50 for african green monkey Vero cells to IC50 for chloroquine-sensitive Plasmodium falciparum 3D7; format: toxicity, cell-based; settings: read-out: Ratio IC50
Staphylococcus aureus = assay: Antimicrobial activity against Staphylococcus aureus ATCC 25923 after 24 hrs by standard broth microdilution method; format: functional; settings: ATCC 25923, 24 h

SMILES | MIC (Aspergillus fumigatus) | MIC (Sporothrix schenckii) | MIC (Escherichia coli) | pIC50 (Plasmodium falciparum [1]) | MIC (Pseudomonas aeruginosa) | MIC [2] | MIC (Candida parapsilosis) | MIC (Klebsiella pneumoniae) | MIC (Candida albicans) | pIC50 (Plasmodium falciparum [3]) | MIC (Cryptococcus neoformans) | selectivity ratio [4] | MIC (Staphylococcus aureus)
COC(=O)/C(C)=C/c1ccc(Oc2ccc(N/C(=N/c3ccc(Cl)cc3)NCCCCNc3ccnc4cc(Cl)ccc34)cc2)cc1 | 50 µg/mL (≈ 74.8 µM) | 6.25 µg/mL (≈ 9.35 µM) | 25 µg/mL (≈ 37.4 µM) | 7.25 | > 50 µg/mL | 12.5 µg/mL (≈ 18.7 µM) | 12.5 µg/mL (≈ 18.7 µM) | 50 µg/mL (≈ 74.8 µM) | 6.25 µg/mL (≈ 9.35 µM) | 6.15 | 6.25 µg/mL (≈ 9.35 µM) | 145 | 12.5 µg/mL (≈ 18.7 µM)
COc1ccc(Oc2ccc(N/C(=N/c3ccc(Cl)cc3)NCCCNc3ccnc4cc(Cl)ccc34)cc2)cc1 | 50 µg/mL (≈ 85.2 µM) | 25 µg/mL (≈ 42.6 µM) | 12.5 µg/mL (≈ 21.3 µM) | 6.69 | > 50 µg/mL | 25 µg/mL (≈ 42.6 µM) | 25 µg/mL (≈ 42.6 µM) | 50 µg/mL (≈ 85.2 µM) | 50 µg/mL (≈ 85.2 µM) | < 6.10 | 50 µg/mL (≈ 85.2 µM) | 82.1 | 12.5 µg/mL (≈ 21.3 µM)
Clc1ccc(/N=C(\NCCCCNc2ccnc3cc(Cl)ccc23)Nc2ccc(Oc3cc(Cl)ccc3Cl)cc2)cc1 | 25 µg/mL (≈ 39.1 µM) | 6.25 µg/mL (≈ 9.77 µM) | 6.25 µg/mL (≈ 9.77 µM) | 7.54 | > 50 µg/mL | 12.5 µg/mL (≈ 19.5 µM) | 12.5 µg/mL (≈ 19.5 µM) | 12.5 µg/mL (≈ 19.5 µM) | 12.5 µg/mL (≈ 19.5 µM) | 6.68 | 12.5 µg/mL (≈ 19.5 µM) | 756 | 6.25 µg/mL (≈ 9.77 µM)
COC(=O)/C(C)=C/c1ccc(Oc2ccc(N/C(=N/c3ccc(Cl)cc3)NCCCNc3ccnc4cc(Cl)ccc34)cc2)cc1 | 50 µg/mL (≈ 76.4 µM) | 6.25 µg/mL (≈ 9.55 µM) | 12.5 µg/mL (≈ 19.1 µM) | 7.41 | > 50 µg/mL | 12.5 µg/mL (≈ 19.1 µM) | 12.5 µg/mL (≈ 19.1 µM) | 50 µg/mL (≈ 76.4 µM) | 12.5 µg/mL (≈ 19.1 µM) | 6.70 | 12.5 µg/mL (≈ 19.1 µM) | 100 | 12.5 µg/mL (≈ 19.1 µM)
Clc1cccc(/N=C(\NCCCCNc2ccnc3cc(Cl)ccc23)Nc2ccc(Oc3cc(Cl)ccc3Cl)cc2)c1 | 25 µg/mL (≈ 39.1 µM) | 3.12 µg/mL (≈ 4.88 µM) | 6.25 µg/mL (≈ 9.77 µM) | 6.90 | > 50 µg/mL | 6.25 µg/mL (≈ 9.77 µM) | 6.25 µg/mL (≈ 9.77 µM) | 50 µg/mL (≈ 78.2 µM) | 3.12 µg/mL (≈ 4.88 µM) | < 6.11 | 12.5 µg/mL (≈ 19.5 µM) | 26.3 | 6.25 µg/mL (≈ 9.77 µM)
COC(=O)/C(C)=C/c1ccc(Oc2ccccc2N/C(=N/c2ccc(Cl)cc2)NCCNc2ccnc3cc(Cl)ccc23)cc1 | > 50 µg/mL | 50 µg/mL (≈ 78.1 µM) | 50 µg/mL (≈ 78.1 µM) | 7.29 | > 50 µg/mL | 50 µg/mL (≈ 78.1 µM) | > 50 µg/mL | > 50 µg/mL | 50 µg/mL (≈ 78.1 µM) | 6.38 | 50 µg/mL (≈ 78.1 µM) | 46.2 | 1.56 µg/mL (≈ 2.44 µM)
COC(=O)/C(C)=C/c1ccc(Oc2ccc(N/C(=N/c3cccc(Cl)c3)NCCNc3ccnc4cc(Cl)ccc34)cc2)cc1 | > 50 µg/mL | 25 µg/mL (≈ 39 µM) | 12.5 µg/mL (≈ 19.5 µM) | 7.31 | 50 µg/mL (≈ 78.1 µM) | 25 µg/mL (≈ 39 µM) | 50 µg/mL (≈ 78.1 µM) | 12.5 µg/mL (≈ 19.5 µM) | 50 µg/mL (≈ 78.1 µM) | 6.91 | 50 µg/mL (≈ 78.1 µM) | 71.7 | 6.25 µg/mL (≈ 9.76 µM)
COc1ccc(Oc2ccccc2N/C(=N/c2cccc(Cl)c2)NCCNc2ccnc3cc(Cl)ccc23)cc1 | 12.5 µg/mL (≈ 21.8 µM) | > 50 µg/mL | 6.25 µg/mL (≈ 10.9 µM) | 7.36 | > 50 µg/mL | 12.5 µg/mL (≈ 21.8 µM) | > 50 µg/mL | 12.5 µg/mL (≈ 21.8 µM) | 6.25 µg/mL (≈ 10.9 µM) | 6.70 | 12.5 µg/mL (≈ 21.8 µM) | 208 | 6.25 µg/mL (≈ 10.9 µM)
Clc1cccc(/N=C(\NCCNc2ccnc3cc(Cl)ccc23)Nc2ccc(Oc3cc(Cl)ccc3Cl)cc2)c1 | 50 µg/mL (≈ 81.8 µM) | 3.12 µg/mL (≈ 5.1 µM) | 6.25 µg/mL (≈ 10.2 µM) | 7.20 | > 50 µg/mL | 6.25 µg/mL (≈ 10.2 µM) | 25 µg/mL (≈ 40.9 µM) | > 50 µg/mL | 3.12 µg/mL (≈ 5.1 µM) | < 6.09 | 12.5 µg/mL (≈ 20.4 µM) | 53.2 | 12.5 µg/mL (≈ 20.4 µM)
COc1ccc(Oc2ccc(N/C(=N/c3ccccc3)NCCCNc3ccnc4cc(Cl)ccc34)cc2)cc1 | 25 µg/mL (≈ 45.3 µM) | 12.5 µg/mL (≈ 22.6 µM) | 6.25 µg/mL (≈ 11.3 µM) | 7.44 | > 50 µg/mL | 12.5 µg/mL (≈ 22.6 µM) | 12.5 µg/mL (≈ 22.6 µM) | 12.5 µg/mL (≈ 22.6 µM) | 25 µg/mL (≈ 45.3 µM) | 6.17 | 25 µg/mL (≈ 45.3 µM) | 97.8 | 6.25 µg/mL (≈ 11.3 µM)
Clc1cccc(/N=C(\NCCCCNc2ccnc3cc(Cl)ccc23)Nc2ccccc2Oc2cc(Cl)ccc2Cl)c1 | 50 µg/mL (≈ 78.2 µM) | 25 µg/mL (≈ 39.1 µM) | 12.5 µg/mL (≈ 19.5 µM) | 6.83 | 50 µg/mL (≈ 78.2 µM) | 25 µg/mL (≈ 39.1 µM) | 25 µg/mL (≈ 39.1 µM) | 12.5 µg/mL (≈ 19.5 µM) | 25 µg/mL (≈ 39.1 µM) | 6.36 | 50 µg/mL (≈ 78.2 µM) | 7.7 | 1.56 µg/mL (≈ 2.44 µM)
COC(=O)/C(C)=C/c1ccc(Oc2ccccc2N/C(=N/c2ccc(Cl)cc2)NCCCNc2ccnc3cc(Cl)ccc23)cc1 | > 50 µg/mL | 25 µg/mL (≈ 38.2 µM) | 12.5 µg/mL (≈ 19.1 µM) | 7.13 | > 50 µg/mL | 25 µg/mL (≈ 38.2 µM) | > 50 µg/mL | > 50 µg/mL | 50 µg/mL (≈ 76.4 µM) | 6.58 | 50 µg/mL (≈ 76.4 µM) | 32.7 | 1.56 µg/mL (≈ 2.38 µM)
COC(=O)/C(C)=C/c1ccc(Oc2ccc(N/C(=N/c3ccccc3)NCCNc3ccnc4cc(Cl)ccc34)cc2)cc1 | 25 µg/mL (≈ 41.2 µM) | 12.5 µg/mL (≈ 20.6 µM) | 12.5 µg/mL (≈ 20.6 µM) | 7.15 | > 50 µg/mL | 6.25 µg/mL (≈ 10.3 µM) | 12.5 µg/mL (≈ 20.6 µM) | > 50 µg/mL | 1.52 µg/mL (≈ 2.51 µM) | 7.18 | 12.5 µg/mL (≈ 20.6 µM) | 158 | 25 µg/mL (≈ 41.2 µM)
COC(=O)/C(C)=C/c1ccc(Oc2ccc(N/C(=N/c3ccccc3)NCCCNc3ccnc4cc(Cl)ccc34)cc2)cc1 | 25 µg/mL (≈ 40.3 µM) | 6.25 µg/mL (≈ 10.1 µM) | 50 µg/mL (≈ 80.6 µM) | 7.11 | > 50 µg/mL | 12.5 µg/mL (≈ 20.2 µM) | 25 µg/mL (≈ 40.3 µM) | > 50 µg/mL | 6.25 µg/mL (≈ 10.1 µM) | < 6.10 | 6.25 µg/mL (≈ 10.1 µM) | 84.3 | 25 µg/mL (≈ 40.3 µM)
Clc1ccc(Cl)c(Oc2ccc(N/C(=N/c3ccccc3)NCCNc3ccnc4cc(Cl)ccc34)cc2)c1 | 12.5 µg/mL (≈ 21.7 µM) | 3.12 µg/mL (≈ 5.41 µM) | 6.25 µg/mL (≈ 10.8 µM) | 7.40 | > 50 µg/mL | 6.25 µg/mL (≈ 10.8 µM) | 3.12 µg/mL (≈ 5.41 µM) | > 50 µg/mL | 3.12 µg/mL (≈ 5.41 µM) | < 6.06 | 6.25 µg/mL (≈ 10.8 µM) | 109 | 12.5 µg/mL (≈ 21.7 µM)
Clc1ccc(/N=C(\NCCNc2ccnc3cc(Cl)ccc23)Nc2ccccc2Oc2cc(Cl)ccc2Cl)cc1 | > 50 µg/mL | 25 µg/mL (≈ 40.9 µM) | 12.5 µg/mL (≈ 20.4 µM) | 7.24 | > 50 µg/mL | 50 µg/mL (≈ 81.8 µM) | > 50 µg/mL | > 50 µg/mL | 25 µg/mL (≈ 40.9 µM) | < 6.10 | > 50 µg/mL | 16.5 | 6.25 µg/mL (≈ 10.2 µM)
Clc1ccc(Cl)c(Oc2ccc(N/C(=N/c3ccccc3)NCCCCNc3ccnc4cc(Cl)ccc34)cc2)c1 | 25 µg/mL (≈ 41.3 µM) | 25 µg/mL (≈ 41.3 µM) | 12.5 µg/mL (≈ 20.7 µM) | 6.51 | > 50 µg/mL | 25 µg/mL (≈ 41.3 µM) | 12.5 µg/mL (≈ 20.7 µM) | 25 µg/mL (≈ 41.3 µM) | 12.5 µg/mL (≈ 20.7 µM) | < 6.08 | 25 µg/mL (≈ 41.3 µM) | 29.9 | 12.5 µg/mL (≈ 20.7 µM)
COc1ccc(Oc2ccc(N/C(=N/c3ccc(Cl)cc3)NCCNc3ccnc4cc(Cl)ccc34)cc2)cc1 | 25 µg/mL (≈ 43.7 µM) | 6.25 µg/mL (≈ 10.9 µM) | 6.25 µg/mL (≈ 10.9 µM) | 7.16 | > 50 µg/mL | 12.5 µg/mL (≈ 21.8 µM) | 12.5 µg/mL (≈ 21.8 µM) | 12.5 µg/mL (≈ 21.8 µM) | 12.5 µg/mL (≈ 21.8 µM) | 6.98 | 25 µg/mL (≈ 43.7 µM) | 122 | 6.25 µg/mL (≈ 10.9 µM)
